Results reported in ChEMBL document CHEMBL3526033, “Identification of human liver cytochrome P450 enzymes involved in the metabolism of SCH 530348 (Vorapaxar), a potent oral thrombin protease-activated receptor 1 antagonist” (Drug Metab Dispos, 2011).

How the values were obtained:
Cytochrome P450 2J2 = target: T1, Cytochrome P450 2J2 (Homo sapiens, UniProt P51589); assay: Drug metabolism assessed as human recombinant CYP2J2-mediated 2-hydroxyethyl (1R,3aR,4aR,6R,8aR,9S,9aS)-9-((E)-2-(5-(3-fluorophenyl)pyridin-2-yl)vinyl)-1-methyl-3-oxododecahydronaphtho[2,3-c]furan-6-ylcarbamate formation at 25 uM after 120 mins by LC-MS/MS analysis in presence of ketoconazole; format: ADME; conditions: recombinant enzyme, 2 h
T1 sequence (P51589 whole entry): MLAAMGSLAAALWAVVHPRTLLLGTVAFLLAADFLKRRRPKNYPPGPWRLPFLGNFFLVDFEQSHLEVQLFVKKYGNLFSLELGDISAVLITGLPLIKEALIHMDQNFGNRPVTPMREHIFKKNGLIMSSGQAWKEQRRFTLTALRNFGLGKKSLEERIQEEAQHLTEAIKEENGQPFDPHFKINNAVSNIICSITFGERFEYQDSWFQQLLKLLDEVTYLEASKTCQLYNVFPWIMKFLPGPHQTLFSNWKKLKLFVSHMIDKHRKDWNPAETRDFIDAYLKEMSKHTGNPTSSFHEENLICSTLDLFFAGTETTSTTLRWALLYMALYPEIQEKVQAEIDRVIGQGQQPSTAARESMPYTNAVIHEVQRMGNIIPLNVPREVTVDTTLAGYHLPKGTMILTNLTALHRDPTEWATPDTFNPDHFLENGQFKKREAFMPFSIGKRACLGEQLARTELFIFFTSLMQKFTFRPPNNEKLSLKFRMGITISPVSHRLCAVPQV

[1] = (§1) Drug metabolism in human intestine microsomes assessed as 2-hydroxyethyl (1R,3aR,4aR,6R,8aR,9S,9aS)-9-((E)-2-(5-(3-fluorophenyl)pyridin-2-yl)vinyl)-1-methyl-3-oxododecahydronaphtho[2,3-c]furan-6-ylcarbamate formation at 25 uM after 120 mins by LC-MS/MS analysis in presence of NADPH; format: ADME; conditions: 2 h
Liver microsome [2] = assay: Drug metabolism in human liver microsomes overexpressing CYP3A4 assessed as (3R,3aS,4S,4aR,7R,8aR,9aR)-7-amino-4-((E)-2-(5-(3-fluorophenyl)pyridin-2-yl)vinyl)-3-methyldecahydronaphtho[2,3-c]furan-1(3H)-one formation at 25 uM after 120 mins by LC-MS/MS analysis in presence of ticlopidine; format: ADME; conditions: 2 h
Liver microsome [3] = assay: as §1, with “liver” for “intestine”, “CYP3A4-specific inhibitory monoclonal antibody” for “NADPH”; format: ADME; conditions: 2 h
Cytochrome P450 2C18 = Cytochrome P450 2C18 (Homo sapiens, UniProt P33260); assay: Activity of human recombinant CYP2C18 assessed as enzyme-mediated drug metabolism treated with 25 uM vorapaxar after 120 mins by LC-MS/MS analysis in presence of NADPH; format: ADME; conditions: 2 h
Chain of Cytochrome P450 2C18 (P33260 whole entry): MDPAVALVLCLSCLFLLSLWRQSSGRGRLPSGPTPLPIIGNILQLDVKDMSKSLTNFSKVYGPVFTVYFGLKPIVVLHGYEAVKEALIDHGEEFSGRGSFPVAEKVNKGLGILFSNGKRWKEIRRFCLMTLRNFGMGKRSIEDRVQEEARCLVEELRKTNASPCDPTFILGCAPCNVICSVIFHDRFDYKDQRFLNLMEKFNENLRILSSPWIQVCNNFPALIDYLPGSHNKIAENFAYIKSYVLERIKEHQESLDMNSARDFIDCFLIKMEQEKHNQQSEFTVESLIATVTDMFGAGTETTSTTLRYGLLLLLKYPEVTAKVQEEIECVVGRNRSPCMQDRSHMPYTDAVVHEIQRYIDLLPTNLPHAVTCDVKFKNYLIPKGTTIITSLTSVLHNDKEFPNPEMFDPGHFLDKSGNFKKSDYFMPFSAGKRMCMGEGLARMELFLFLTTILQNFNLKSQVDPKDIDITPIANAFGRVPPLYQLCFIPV

Cytochrome P450 1B1 = Cytochrome P450 1B1 (Homo sapiens, UniProt Q16678); assay: Activity of human recombinant CYP1B1 assessed as enzyme-mediated drug metabolism treated with 25 uM vorapaxar after 120 mins by LC-MS/MS analysis in presence of NADPH; format: ADME; conditions: 2 h
Chain of Cytochrome P450 1B1 (Q16678 whole entry): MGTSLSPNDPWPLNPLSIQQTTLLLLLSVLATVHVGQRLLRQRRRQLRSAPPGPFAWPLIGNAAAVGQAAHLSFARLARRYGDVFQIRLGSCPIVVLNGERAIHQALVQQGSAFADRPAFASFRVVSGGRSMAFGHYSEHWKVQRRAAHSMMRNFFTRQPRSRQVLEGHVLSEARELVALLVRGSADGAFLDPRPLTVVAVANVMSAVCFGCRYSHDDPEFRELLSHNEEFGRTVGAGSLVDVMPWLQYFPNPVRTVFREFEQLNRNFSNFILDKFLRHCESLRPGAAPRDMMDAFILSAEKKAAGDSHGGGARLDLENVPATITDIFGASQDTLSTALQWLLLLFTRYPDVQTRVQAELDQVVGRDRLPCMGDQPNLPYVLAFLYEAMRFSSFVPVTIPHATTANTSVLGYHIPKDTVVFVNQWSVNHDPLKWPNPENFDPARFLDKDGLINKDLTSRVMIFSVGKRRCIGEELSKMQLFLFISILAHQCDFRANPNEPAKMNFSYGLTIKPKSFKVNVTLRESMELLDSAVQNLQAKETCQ

Cytochrome P450 3A5 = Cytochrome P450 3A5 (Homo sapiens, UniProt P20815); assay: Activity of human recombinant CYP3A5 assessed as enzyme-mediated drug metabolism at 10 uM after 120 mins by LC-MS/MS analysis; format: ADME; conditions: 2 h
Chain of Cytochrome P450 3A5 (P20815 whole entry): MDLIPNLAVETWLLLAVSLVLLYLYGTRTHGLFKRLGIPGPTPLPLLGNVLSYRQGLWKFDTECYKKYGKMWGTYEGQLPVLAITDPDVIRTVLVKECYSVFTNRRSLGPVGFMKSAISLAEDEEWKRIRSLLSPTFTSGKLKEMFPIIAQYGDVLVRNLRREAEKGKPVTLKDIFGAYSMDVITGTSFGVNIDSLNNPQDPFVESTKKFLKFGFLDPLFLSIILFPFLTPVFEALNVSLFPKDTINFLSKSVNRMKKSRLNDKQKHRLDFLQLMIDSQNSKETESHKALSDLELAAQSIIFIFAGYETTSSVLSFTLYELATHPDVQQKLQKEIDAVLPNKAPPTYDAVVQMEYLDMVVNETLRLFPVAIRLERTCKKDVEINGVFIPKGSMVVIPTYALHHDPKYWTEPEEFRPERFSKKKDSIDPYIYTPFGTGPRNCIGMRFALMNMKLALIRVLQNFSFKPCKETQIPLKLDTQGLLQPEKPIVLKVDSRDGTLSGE

Cytochrome P450 3A4 = Cytochrome P450 3A4 (Homo sapiens, UniProt P08684); assay: Activity of human recombinant CYP3A4 assessed as enzyme-mediated (3R,3aS,4S,4aR,7R,8aR,9aR)-7-amino-4-((E)-2-(5-(3-fluorophenyl)pyridin-2-yl)vinyl)-3-methyldecahydronaphtho[2,3-c]furan-1(3H)-one formation assessed per nmol of enzyme at 10 uM after 120 mins by LC-MS/MS analysis in presence of NADPH; format: ADME; conditions: 2 h
Chain of Cytochrome P450 3A4 (P08684 whole entry): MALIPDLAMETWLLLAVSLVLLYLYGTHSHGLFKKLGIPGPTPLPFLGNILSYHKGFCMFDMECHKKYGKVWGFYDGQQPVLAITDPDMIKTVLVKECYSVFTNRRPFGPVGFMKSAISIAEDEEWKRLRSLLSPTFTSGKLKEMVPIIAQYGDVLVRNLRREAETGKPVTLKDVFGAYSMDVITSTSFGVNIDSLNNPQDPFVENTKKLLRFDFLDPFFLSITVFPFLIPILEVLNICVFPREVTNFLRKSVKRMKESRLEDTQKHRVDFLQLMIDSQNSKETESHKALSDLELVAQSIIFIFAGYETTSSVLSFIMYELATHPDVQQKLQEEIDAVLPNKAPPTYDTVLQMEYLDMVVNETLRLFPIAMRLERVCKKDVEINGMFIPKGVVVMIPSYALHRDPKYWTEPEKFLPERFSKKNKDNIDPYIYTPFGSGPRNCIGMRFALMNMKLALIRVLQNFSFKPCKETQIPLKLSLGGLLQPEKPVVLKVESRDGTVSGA

[4] = Drug metabolism in human liver S9 fraction assessed as (3R,3aS,4S,4aR,7R,8aR,9aR)-7-amino-4-((E)-2-(5-(3-fluorophenyl)pyridin-2-yl)vinyl)-3-methyldecahydronaphtho[2,3-c]furan-1(3H)-one formation at 10 uM after 120 mins by LC-MS/MS analysis; format: ADME, subcellular; conditions: s9, 2 h
Cytochrome P450 2C19 = Cytochrome P450 2C19 (Homo sapiens, UniProt P33261); assay: Activity of human recombinant CYP2C19 assessed as enzyme-mediated drug metabolism at 10 uM after 120 mins by LC-MS/MS analysis; format: ADME; conditions: 2 h
Chain of Cytochrome P450 2C19 (P33261 whole entry): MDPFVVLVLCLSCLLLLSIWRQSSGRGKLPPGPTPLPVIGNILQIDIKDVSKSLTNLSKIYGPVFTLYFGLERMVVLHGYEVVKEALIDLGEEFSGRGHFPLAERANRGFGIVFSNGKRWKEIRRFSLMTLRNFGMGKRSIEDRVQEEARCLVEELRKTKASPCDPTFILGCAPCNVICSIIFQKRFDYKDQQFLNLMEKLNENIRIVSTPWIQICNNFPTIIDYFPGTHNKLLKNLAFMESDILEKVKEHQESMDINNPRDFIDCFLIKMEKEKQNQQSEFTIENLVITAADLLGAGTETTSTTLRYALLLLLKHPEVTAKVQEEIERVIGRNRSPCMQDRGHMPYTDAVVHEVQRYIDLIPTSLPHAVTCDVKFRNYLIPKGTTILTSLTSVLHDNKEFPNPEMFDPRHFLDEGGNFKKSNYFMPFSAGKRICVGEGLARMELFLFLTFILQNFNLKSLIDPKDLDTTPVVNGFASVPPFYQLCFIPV

Cytochrome P450 2D6 = Cytochrome P450 2D6 (Homo sapiens, UniProt P10635); assay: Activity of human recombinant CYP2D6 assessed as enzyme-mediated drug metabolism at 10 uM after 120 mins by LC-MS/MS analysis; format: ADME; conditions: 2 h
Chain of Cytochrome P450 2D6 (P10635 whole entry): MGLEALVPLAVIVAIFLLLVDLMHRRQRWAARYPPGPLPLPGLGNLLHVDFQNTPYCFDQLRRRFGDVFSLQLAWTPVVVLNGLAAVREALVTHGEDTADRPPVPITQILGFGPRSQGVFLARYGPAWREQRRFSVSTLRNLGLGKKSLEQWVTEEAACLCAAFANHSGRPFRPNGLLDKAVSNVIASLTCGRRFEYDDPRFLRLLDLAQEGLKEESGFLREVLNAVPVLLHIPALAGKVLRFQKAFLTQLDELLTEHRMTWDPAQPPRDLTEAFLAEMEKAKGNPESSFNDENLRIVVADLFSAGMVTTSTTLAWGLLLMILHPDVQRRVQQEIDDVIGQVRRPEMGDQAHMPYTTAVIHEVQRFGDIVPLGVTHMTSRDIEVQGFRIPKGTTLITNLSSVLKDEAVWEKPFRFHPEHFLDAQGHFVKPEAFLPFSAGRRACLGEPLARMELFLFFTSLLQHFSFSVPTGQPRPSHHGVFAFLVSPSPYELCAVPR

SMILES: CCOC(=O)N[C@@H]1CC[C@@H]2[C@@H](C1)C[C@H]1C(=O)O[C@H](C)[C@H]1[C@H]2/C=C/c1ccc(-c2cccc(F)c2)cn1 [VORAPAXAR]
- Drug metabolism (Cytochrome P450 2J2): metabolite_not_detected
- Drug metabolism [1]: metabolite_detected
- Drug metabolism (Liver microsome [2]): metabolite_not_detected
- Drug metabolism (Liver microsome [3]): metabolite_not_detected

SMILES: C[C@H]1OC(=O)[C@@H]2C[C@@H]3C[C@H](NC(=O)OCCO)CC[C@H]3[C@H](/C=C/c3ccc(-c4cccc(F)c4)cn3)[C@H]12
- Drug metabolism (Cytochrome P450 2C18): metabolite_detected
- Drug metabolism (Cytochrome P450 1B1): metabolite_detected

SMILES: CCOC(=O)N[C@@H]1CC[C@@H]2[C@@H](C1)C[C@H]1C(=O)O[C@H](C)[C@H]1[C@H]2/C=[14CH]/c1ccc(-c2cccc(F)c2)cn1
- Drug metabolism (Cytochrome P450 3A5): metabolite_not_detected
- Drug metabolism (Cytochrome P450 3A4): 109.8 pmol/min
- Drug metabolism [4]: metabolite_not_detected
- Drug metabolism (Cytochrome P450 2C19): metabolite_not_detected
- Drug metabolism (Cytochrome P450 2D6): metabolite_not_detected
